The results in this text go back to patent US20260209152A1, “Substituted Hydroxystilbene Compounds and Derivatives, Synthesis and Uses Thereof” (Kynan Duke IP, LLC, priority 2019, published 2026).

One data set deals with Bladder RT-112. Description: CellTiter Glo cell viability assay. The class given is cell-based, human. Particulars: for IC50: Homo sapiens. Summed up: (§1)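 Cells were seeded at 1.7*10^3 cells/well in quadruplicate and treated with 18 two-fold dilutions from 5 μM (0.000038146–5 μM), or with 1, 2, 5, 10 and 20 μM. Viability was read by CellTiter Glo luminescence on days 1, 3 and 5, and IC50 came from nonlinear regression of RLU against log dose.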
(In ATP-based viability assays light output follows the ATP content of the culture.)

Another data set concerns Bladder UMUC-14. The experiment in a line: CellTiter Glo cell viability assay. The class given is cell-based, human. The following applies: for IC50: Homo sapiens, UMUC14, 72 h, 3 Days of treatment, 18 2-fold dilutions 5-0.00003 μM. Summed up: as §1
Data set [1] concerns Connective Tissue Sarcoma TE 381.T. Description: CellTiter Glo cell viability assay. It counts as cell-based, human. Particulars: for IC50: Homo sapiens, TE 381.T, 72 h, 3 Days of treatment, 18 2-fold dilutions 5-0.00003 μM. Summed up:
as §1

The next data set relates to Kidney ACHN. The experiment in a line: CellTiter Glo cell viability assay. It counts as cell-based, human. Particulars: for IC50: Homo sapiens, ACHN. The method in brief:
as §1

Another data set has as its system Leiomyosarcoma SK-UT-1B. The experiment in a line: CellTiter Glo cell viability assay. The class given is cell-based, human. Particulars: for IC50: Homo sapiens, Skut1B, 72 h, 3 Days of treatment, 18 2-fold dilutions 5-0.00003 μM. The method in brief:
as §1

For another data set, the system named is Liposarcoma 94T778. Description: CellTiter Glo cell viability assay. Particulars: for IC50: Homo sapiens, 72 h, 3 Days of treatment, 18 2-fold dilutions 5-0.00003 μM. It counts as cell-based, human. Summed up:
as §1

The next data set deals with Liver SNU-475. Description: CellTiter Glo cell viability assay. It counts as cell-based, human. Particulars: for IC50: Homo sapiens, SNU-475, 72 h, 3 Days of treatment, 18 2-fold dilutions 5-0.00003 μM. The method in brief: as §1
Another data set deals with Osteosarcomas KHOS_N/P. The experiment in a line: CellTiter Glo cell viability assay. The following applies: for IC50: Homo sapiens, KHOS/NP, 72 h, 3 Days of treatment, 18 2-fold dilutions 5-0.00003 μM. The class given is cell-based, human. Summed up:
as §1

A further data set relates to Osteosarcomas T1-73. Description: CellTiter Glo cell viability assay. The class given is cell-based, human. Particulars: for IC50: Homo sapiens, 72 h, 3 Days of treatment, 18 2-fold dilutions 5-0.00003 μM. Summed up: as §1
A further data set deals with Pancreatic CAPAN-1. The experiment in a line: CellTiter Glo cell viability assay. The class given is cell-based, human. The following applies: for IC50: Homo sapiens, CAPAN-1, 72 h, 18 2-fold dilutions 5-0.00003 μM. The method in brief: as §1
Another data set deals with Pancreatic CFPAC. The experiment in a line: CellTiter Glo cell viability assay. It counts as cell-based, human. Particulars: for IC50: Homo sapiens, 72 h, 3 Days of treatment, 18 2-fold dilutions 5-0.00003 μM. Summed up: as §1
Another data set has as its system Pancreatic HPAC. Description: CellTiter Glo cell viability assay. The class given is cell-based, human. The following applies: for IC50: Homo sapiens, HPAC, 72 h, 3 Days of treatment, 18 2-fold dilutions 5-0.00003 μM. The method in brief:
as §1

In another data set the test system is Rhabomyosarcoma CCL 166. The experiment in a line: CellTiter Glo cell viability assay. The class given is cell-based, human. Particulars: for IC50: Homo sapiens, 72 h, 3 Days of treatment, 18 2-fold dilutions 5-0.00003 μM. The method in brief: as §1
Another data set deals with BalbC mice. Description: Maximum Tolerable Dose - LD/50 single dose oral administration. The class given is in vivo. Particulars: single oral dose 2000 mg/kg in SEDDS vehicle, 5 BalbC mice, observation 5 days. On the procedure: To ascertain initial information regarding the toxicity and tolerability of compound 27.
• A single administration of orally formulated maximum dose, 2000 mg/kg was given to 5 BalbC mice. Observation was carried out for 5 days.
• Compound 27 was weighed out and diluted into the same SEDDS vehicle used for S1. The SEDDS vehicle is composed of the following components: • Labrasol (30%) • PEG-400 (20%) • Kolliphore RH-40 (30%) • Labrafil (20%) • The concentration of 27 in SEDDS was 200 mg/mL which would translate to a 2000 mg/kg oral dose for a 20 g mouse administered 200 ul. Oral administration was administered to 5 mice and the animals were carefully observed for signs of toxicity in the first hour then sporadically over 5 days.

Data set [2] in a line: Concentration of compound 27 in tissues (LC/MS/MS) of B16F10 xenografted mice. The class given is in vivo. The protocol:
• Observe and assess the effect of oral administration of 27 on animal wellbeing. • Quantify levels of 27 in tissues (plasma, tumor, liver, spleen and brain) to assess the compound bioaccumulation and distribution.
B16F10 cells (25×10^5 cells/mouse) were injected subcutaneously into the right flank of female BALB/c mice aged 7-8 weeks. Mice (n=10) were divided into 2 groups and given daily oral suspension of 27 (treated group), or vehicle (control group) for 15 days. The treated group was orally given a suspension of 27 at 900 mg/kg. The control group was given the vehicle suspension (SEDDS). Measurements performed on days 0, 9 and 15 only. Tissues (plasma, tumor, liver, spleen and brain) were harvested within 3 hours of final treatment. Biopsies of tumor tissues for histopathology were obtained subsequently.
Concentrations of 27 in different tissues were determined using LC/MS/MS spectrometry.

Another data set relates to Bladder HT_1376. The experiment in a line: CellTiter Glo cell viability assay. The class given is cell-based. The following applies: Homo sapiens, HT-1376, 72 h; 3 Days of treatment; 18 2-fold dilutions 5-0.00003 μM. On the procedure:
(§2) 1.7*10^3 cells/well were seeded in quadruplicates in 96-well plate after plating. Drugs were added at 5 μM and 2-fold dilutions over 18 concentrations (0.000038146-5 […] range) to generate a dose-response curve. Cell growth was assessed on day 1, 3 and 5 after drug treatments using the CellTiter Glo Luminescence Cell Viability Assay (Promega) according to manufacturer's protocol. Thermo Scientific Varioskan LUX Multimode Microplate instrument was used for plate reading. Data are expressed as mean luminescence (arbitrary units) ±S.D.
(§3) Cell Viability Assays were employed to determine the concentration of Compound 1 (KYN-001) and analogues where the response is reduced by half. For each treatment of cancer cells, 1, 2, 5, 10 and 20 μM solutions of compounds were applied. GraphPad Prism 7 software was used to fit dose response curves. Relative Luminescence Units were plotted against the log values of the doses used and the nonlinear regression model was used for data analysis.
(§4) The protocol for cell proliferation was optimized for Compound 8 (KYN-119) to enable a more accurate assessment of its low IC50 value. In this protocol, 18 dosages (2 fold dilutions ranging from 0.000038146 to 5 μM) were applied to cells seeded in 96-well plates, and Luminescence was measured after 1, 3 and 5 days upon treatments.

A further data set deals with Pancreatic AsPC-1n. The experiment in a line: CellTiter Glo cell viability assay. The class given is cell-based. The following applies: Homo sapiens, 72 h; 3 Days of treatment; 18 2-fold dilutions 5-0.00003 μM. On the procedure:
as §2, §3, §4

The mark [3] stands for this setting: RT-112, 72 h, 3 Days of treatment, 18 2-fold dilutions 5-0.00003 μM, read-out: Average IC50.
Where [4] appears, read: RT-112, 72 h, Table 4: 3 Days of treatment, 18 2-fold dilutions 5-0.00003 μM, Average (1, 8) or single Exp A-D, read-out: IC50.
Setting [5] is: RT-112, 120 h, Day 5 upon drug treatment, 10 dosages 0.0001-20 μM (Compound 8: 18 dosages 0.000038146 to 5 μM), read-out: IC50.
The mark [6] stands for this setting: 72 h, 3 Days of treatment, 18 2-fold dilutions 5-0.00003 μM, read-out: Average IC50.
Setting [7] is: 72 h, Table 4: 3 Days of treatment, 18 2-fold dilutions 5-0.00003 μM, Average (1, 8) or single Exp A-D, read-out: IC50.
Setting [8] is: 120 h, Day 5 upon drug treatment, 10 dosages 0.0001-20 μM (Compound 8: 18 dosages 0.000038146 to 5 μM), read-out: IC50.
[9] abbreviates: 3 Days of treatment, read-out: Average IC50.
[10] abbreviates: Table 4: 3 Days of treatment, Average (1, 8) or single Exp A-D, read-out: IC50.
The mark [11] stands for this setting: individual treated mice, 900 mg/kg oral daily for 15 days in SEDDS, harvested within 3 hours of final treatment, LC/MS/MS, 900 mg/kg.
The mark [12] stands for this setting: IC50 of 1 [KYN-001] vs 8 [KYN-119], 3 Days.

SMILES strings stand for the structures. Where “and” joins values, the source holds several entries; their conditions need not be identical. Equal entries are not always repeated. Entries after “also recorded” stand apart in the source; their conditions may differ. Where two headings read alike, the source gives them in different places.

With `COc1cc(/C=C/c2cc(O)cc(OC)c2CC=C(C)C)ccc1O` [Compound 1, (E)-3-(4-hydroxy-3-methoxystyryl)-5-methoxy-4-(3-methylbut-2-en-1-yl)phenol], the IC50 (usually the concentration at which inhibition is half-maximal) amounted to 52.9 nM with Bladder RT-112 (setting [3]); 105 nM in the data set on Bladder RT-112 (RT-112, 72 h, Day 3 upon drug treatment, 10 dosages 0.0001-20 μM, read-out: IC50); 27 nM with Bladder RT-112 (setting [4]); 28.7 nM in the data set with Bladder RT-112 (setting [5]); 1160 nM in the data set on Bladder UMUC-14; 35.7 nM in data set [1]. The IC50 worked out at 494 nM with Kidney ACHN (setting [6]); 496 nM in the data set on Kidney ACHN (setting [7]); 89.7 nM with Kidney ACHN (setting [8]); 22.6 nM in the data set on Leiomyosarcoma SK-UT-1B; 84.5 nM in the data set on Liposarcoma 94T778; 239 nM in the data set with Liver SNU-475. In addition, the half-maximal inhibitory concentration (IC50) with Osteosarcomas KHOS_N/P was determined as 68.7 nM; with Osteosarcomas T1-73 it was 804 nM; with Pancreatic CAPAN-1 (setting [9]), 6220 nM; in the data set on Pancreatic CAPAN-1 (setting [10]), 1460 nM; with Pancreatic CFPAC, 492 nM; in the data set on Pancreatic HPAC, 4990 nM. In the data set on Rhabomyosarcoma CCL 166, this molecule yielded a half-inhibitory concentration (IC50) of 96 nM.
For the molecule `COc1cc(/C=C/c2cc(O)cc(OC)c2CC=C(C)C)ccc1NC=O` [Compound 27, (E)-N-(4-(5-hydroxy-3-methoxy-2-(3-methylbut-2-en-1-yl)styryl)-2-methoxyphenyl)formamide], the “Toxicity and tolerability, survival and signs of distress” value with BalbC mice is “All five mice survived and showed no immediate signs of distress; also recorded: high degree of oral tolerability”. In [2] (900 mg/kg oral daily for 15 days, tissues harvested within 3 hours of final treatment), the “Tissue distribution, in words” value is recorded as “Low plasma level; also recorded: high tendency to accumulate in the brain”. In [2] (setting [11]), the “Concentration of compound 27 in tissues: Liver” value is 12.6 μg/mg and 10.2 μg/mg and 1.0 μg/mg and 0.0 μg/mg (2×); the “Concentration of compound 27 in tissues: Plasma” value is 0.0 ng/mL (3×) and 8.4 ng/mL and 0.4 ng/mL; the “Concentration of compound 27 in tissues: Spleen” value is 2 μg/mg and 0 μg/mg (4×); the “Concentration of compound 27 in tissues: Tumor” value is 0 μg/mg (3×) and 11.6 μg/mg.
Consider `CCOc1cc(O)cc(/C=C/c2ccc(O)c(OC)c2)c1CC=C(C)C` [Compound 8, (E)-3-Ethoxy-5-(4-hydroxy-3-methoxystyryl)-4-(3-methylbut-2-en-1-yl)phenol], for which the IC50 is 3.63 nM in the data set on Bladder RT-112 (setting [3]); 4.09 nM in the data set with Bladder RT-112 (setting [4]); about 5.65 nM with Bladder RT-112 (setting [5]); 563 nM in the data set on Bladder UMUC-14; 7.5 nM in data set [1]; 10.4 nM in the data set on Kidney ACHN (setting [6]). Besides, the IC50 with Kidney ACHN (setting [7]) was 9.8 nM; in the data set with Kidney ACHN (setting [8]), about 0.0135 nM; with Leiomyosarcoma SK-UT-1B, 6.39 nM; with Liposarcoma 94T778 it was 25.7 nM; with Liver SNU-475, 32.4 nM; in the data set on Osteosarcomas KHOS_N/P it was 10.5 nM. In addition, the IC50 amounted to 3.93 nM in the data set on Osteosarcomas T1-73; 4690 nM in the data set with Pancreatic CAPAN-1 (setting [9]); 2450 nM in the data set on Pancreatic CAPAN-1 (setting [10]); 82.4 nM with Pancreatic CFPAC; 1970 nM in the data set with Pancreatic HPAC; 6.05 nM with Rhabomyosarcoma CCL 166. The IC50 with Bladder HT_1376 worked out at 610 nM; with Pancreatic AsPC-1n, 2000 nM. Further, the “Fold IC50” value with Bladder RT-112 (setting [12]) was 15; in the data set on Bladder UMUC-14 (setting [12]), 2.1; in data set [1] (setting [12]) it was 4.8; in the data set with Kidney ACHN (setting [12]), 48; in the data set on Leiomyosarcoma SK-UT-1B (setting [12]), 3.5; with Liposarcoma 94T778 (setting [12]), 3.3. In addition, the “Fold IC50” value is listed as 7.4 in the data set on Liver SNU-475 (setting [12]); 6.6 in the data set on Osteosarcomas KHOS_N/P (setting [12]); 205 in the data set on Osteosarcomas T1-73 (setting [12]); 1.3 in the data set with Pancreatic CAPAN-1 (setting [12]); 6.0 in the data set with Pancreatic CFPAC (setting [12]); 2.5 with Pancreatic HPAC (setting [12]). Also, the “Fold IC50” value with Rhabomyosarcoma CCL 166 (setting [12]) came to 16.
